According to patent US7038014B2, “Polycation-sensing receptor in aquatic species and methods of use thereof” (Brigham and Women's Hospital, priority 1996, dated 2006):
“And” between values parts separate entries of the source, which are not always exact repeats. Identical values can stand only once. Like-named read-outs stand apart in the source and are kept apart here.

Assays:
[1] = system: isolated urinary bladder of winter flounder (PVCR; thiazide-sensitive NaCl cotransporter); test: Water reabsorption (Jv) in isolated winter flounder urinary bladder, gravimetric; assay type: cell-based, winter flounder (Pseudopleuronectes americanus); conditions: for water reabsorption (Jv): control Jv 130±28; for inhibition of water reabsorption: application of agent, concentration not stated (summary); for IC50: read-out: half maximal inhibitory concentration for urinary bladder Jv (IC50); for reversibility of inhibitory effect on Jv: upon removal of agonist
Experimental: To provide further evidence linking Aquatic PVCRs to fish osmoregulation, isolated urinary bladder of winter founder was used to investigate whether PVCRs modulate epithelial cell ion transport. […] Water reabsorption from the urine stored in urinary bladder allows for the concentrations of both Mg^2+ and Ca^2+ to increase to values as high as 84 mM and 7 mM respectively in marine founders (Elger, E. B., et al., J. Como. Physiol., B157:21 (1987)). 5 Net apical to basolateral water flux (Jv) was measured gravimetrically in 10 minute intervals using individual urinary bladder excised from winter flounder. […] The weight of the bladder was measured before and after the experimental period, wherein the experimental period comprised the period of time that the isolated bladder was exposed to test compound. The compound to be tested (e.g., test compound) was added to both serosal and mucosal solutions. The bladders were dried and weighted as described in Renfro et al. The difference in bladder weight prior to and after exposure to test compound is an indication of water reabsorption by the bladder.
Endocrinol. 127:1064–1071 (1990). […]

[2] = system: SKCaR (SEQ ID NO.: 2); test: FURA 2 intracellular calcium assay of SKCaR activation in transfected HEK cells; assay type: cell-based, dogfish shark (Squalus acanthias)
Description: SKCaR cDNA (SEQ ID NO.: 1) was ligated into the mammalian expression vector PCDNA II and transfected into HEK cells using standard techniques. The presence of SKCaR protein (SEQ ID NO.: 2) in transfected cells was verified by western blotting. Activation of SKCaR (SEQ ID NO.: 2) by extracellular Ca2+, Mg2+ or NaCl was quantified using a well characterized FURA 2 based assay where increases in intracellular Ca2+ produced by SKCaR activation are detected using methodology published previously the Dr. E. Brown's laboratory (Bai, M., S. Quinn, S. Trvedi, O. Kifor, S. H. S. Pearce, M. R. Pollack, K. Krapcho, S. C. Hebert and E. M. Brown. Expression and characterization of inactivating and activating mutations in the human Ca2+-sensing receptor. J. Biol. Chem., 32:19537–19545 (1996)) and expressed as % normalized intracellular calcium response to receptor activation.

[3] = target: T1, mammalian CaRs (Bos taurus, UniProt P35384); conditions: literature value; cited from earlier work
T1 sequence (P35384 20-1085): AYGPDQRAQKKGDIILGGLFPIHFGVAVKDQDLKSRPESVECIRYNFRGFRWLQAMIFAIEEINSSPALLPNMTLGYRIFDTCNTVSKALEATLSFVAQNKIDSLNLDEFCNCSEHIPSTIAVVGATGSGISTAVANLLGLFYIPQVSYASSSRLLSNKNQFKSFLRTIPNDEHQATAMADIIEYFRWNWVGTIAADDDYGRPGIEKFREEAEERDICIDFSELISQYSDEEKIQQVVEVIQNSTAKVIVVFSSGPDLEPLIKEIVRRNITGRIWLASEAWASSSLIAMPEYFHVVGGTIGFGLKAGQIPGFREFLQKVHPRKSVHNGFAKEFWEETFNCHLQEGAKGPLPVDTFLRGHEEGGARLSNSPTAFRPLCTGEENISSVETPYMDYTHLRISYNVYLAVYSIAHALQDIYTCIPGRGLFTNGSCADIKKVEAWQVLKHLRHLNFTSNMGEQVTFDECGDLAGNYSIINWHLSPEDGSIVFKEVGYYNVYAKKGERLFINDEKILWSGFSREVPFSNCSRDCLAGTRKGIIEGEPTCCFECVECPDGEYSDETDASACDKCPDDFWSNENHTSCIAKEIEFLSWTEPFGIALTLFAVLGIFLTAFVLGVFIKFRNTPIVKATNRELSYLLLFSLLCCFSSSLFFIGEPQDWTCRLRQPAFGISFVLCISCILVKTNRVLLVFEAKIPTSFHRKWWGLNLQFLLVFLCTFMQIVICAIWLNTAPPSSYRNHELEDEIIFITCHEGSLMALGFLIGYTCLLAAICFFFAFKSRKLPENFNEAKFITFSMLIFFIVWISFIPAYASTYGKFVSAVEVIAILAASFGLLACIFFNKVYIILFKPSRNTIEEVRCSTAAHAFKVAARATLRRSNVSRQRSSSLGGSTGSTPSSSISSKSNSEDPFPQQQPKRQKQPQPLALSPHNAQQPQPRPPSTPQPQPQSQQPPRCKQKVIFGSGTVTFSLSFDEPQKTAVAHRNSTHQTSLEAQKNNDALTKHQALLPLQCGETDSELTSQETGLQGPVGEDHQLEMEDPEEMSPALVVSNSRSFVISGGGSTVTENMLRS

[4] = extracellular NaCl 50 mM, read-out: EC50 for activation of SKCaR
[5] = extracellular NaCl 550 mM, read-out: EC50 for activation of SKCaR

| Compound | inhibition of water reabsorption (Jv) ([1]; 100 μM agent) [%] | water reabsorption (Jv) ([1]; 100 μM agent) [μl/gm/hr] | inhibition of water reabsorption [1] [%] | EC50 [2, 4] [µM] | EC50 [2, 5] [µM] | IC50 [1] [µM] | reversibility of inhibitory effect on Jv [1] | also measured |
| --- | --- | --- | --- | --- | --- | --- | --- | --- |
| NS(=O)(=O)c1cc2c(cc1Cl)NCNS2(=O)=O [hydrochlorothiazide] | 86±2 | 18±7 | > 85 |  |  |  |  |  |
| [Cl-].[Na+] [NaCl] |  |  |  |  |  |  |  | effect on sensitivity of SKCaR to Ca2+ ([2]; increasing concentrations of NaCl): reduce the sensitivity |
| [Ca+2] [Ca2+, calcium] |  |  |  | < 5000 | ~18000 |  |  | effect on sensitivity of SKCaR to Mg2+ ([2]; addition of 3 mM Ca2+, as a function of extracellular NaCl): increases the sensitivity; EC50 ([2]; depending on the extracellular concentration of NaCl, read-out: half maximal activation of SKCaR): 1000 to 15000 µM |
| neomycin |  |  | > 50 |  |  | 150 | reversible | inhibition of water reabsorption (Jv) ([1]; 200 μM agent): 52±4%; water reabsorption (Jv) ([1]; 200 μM agent): 63±10 μl/gm/hr; IC50 [3]: 50 µM and 60 to 70 µM |
| [Mg+2] [Mg2+, magnesium] |  |  |  | < 20000 | ~80000 |  |  | concentration range in which SKCaR is activated ([2]; modulated by extracellular NaCl): 5 to 40 mM |
| [Gd+3] [Gd^3+, gadolinium] | 75±5 | 32±18 | > 90 |  |  | 15 | reversible |  |
